Measurements taken from US12435061B2 (priority 2020, dated 2025).
Where two headings read alike, the source gives them in different places.

Experiments:
hTRPV3 [1] = molecular target: T1, hTRPV3 (Homo sapiens (Human), UniProt Q8NET8); experiment: Whole-cell patch clamp, hTRPV3 Phase 1 / Phase 2 currents; type: cell-based
Summary of the method: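 Whole-cell recordings on induced TRPV3 cells replated on coverslips, held at −40 mV with 400 ms ramps from −120 to +100 mV every 5 s; currents read at −80 and +80 mV. Ringer's external solution; current activated by heating to ≥28 °C or 20 μM 2-APB.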

hTRPV3 [2] = molecular target: T1, hTRPV3; experiment: hTRPV3 HAMA IC50 assay (Hamamatsu FDSS6000 calcium flux, TRex-293 cells)
Description: IC50s were calculated using CBIS from ChemInnovation (San Diego).

[3] = Phase 1 current, inward, whole-cell patch clamp, read-out: hTRPV3 Patch P1 Inwd
[4] = Phase 1 current, read-out: hTRPV3 (nM) (Phase 1)
[5] = Phase 2 current, read-out: hTRPV3 (nM) (Phase 2)
[6] = Phase 2 current, inward, whole-cell patch clamp, read-out: hTRPV3 Patch P2 Inwd

T1 sequence (Q8NET8 whole entry): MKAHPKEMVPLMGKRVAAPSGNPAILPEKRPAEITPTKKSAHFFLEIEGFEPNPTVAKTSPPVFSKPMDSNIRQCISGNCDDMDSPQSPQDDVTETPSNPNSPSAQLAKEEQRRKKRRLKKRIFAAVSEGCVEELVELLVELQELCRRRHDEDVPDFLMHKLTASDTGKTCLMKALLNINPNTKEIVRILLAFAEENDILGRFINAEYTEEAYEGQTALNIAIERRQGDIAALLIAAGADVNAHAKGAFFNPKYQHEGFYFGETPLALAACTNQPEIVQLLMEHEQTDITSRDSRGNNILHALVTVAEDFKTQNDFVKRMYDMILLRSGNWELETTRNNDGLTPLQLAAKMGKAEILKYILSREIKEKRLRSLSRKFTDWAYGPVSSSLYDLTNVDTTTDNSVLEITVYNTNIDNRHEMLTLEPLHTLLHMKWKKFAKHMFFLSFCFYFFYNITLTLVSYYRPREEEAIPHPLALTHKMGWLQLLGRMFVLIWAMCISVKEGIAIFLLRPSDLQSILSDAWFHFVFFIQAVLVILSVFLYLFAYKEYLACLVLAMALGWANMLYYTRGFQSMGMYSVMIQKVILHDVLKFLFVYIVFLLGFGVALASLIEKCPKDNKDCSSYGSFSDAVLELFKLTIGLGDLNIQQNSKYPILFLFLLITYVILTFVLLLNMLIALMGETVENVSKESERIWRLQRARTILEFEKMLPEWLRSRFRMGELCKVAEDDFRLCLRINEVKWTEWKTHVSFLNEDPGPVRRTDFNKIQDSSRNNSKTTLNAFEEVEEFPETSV

Compound	IC50 (hTRPV3 [1]; [3]) [nM]	IC50 (hTRPV3 [1]; [4]) [nM]	hTRPV3 HAMA IC50 (nM) (5 min) (hTRPV3 [2])	hTRPV3 HAMA IC50 (nM) (30 min) (hTRPV3 [2])	IC50 (hTRPV3 [1]; [5]) [nM]	IC50 (hTRPV3 [1]; hTRPV3 Patch P1 Inwd (nM), Phase 1 current, inward, whole-cell patch clamp) [nM]	IC50 (hTRPV3 [1]; hTRPV3 Patch P2 Inwd (nM), Phase 2 current, inward, whole-cell patch clamp) [nM]	hTRPV3 (nM) (Phase 1) (hTRPV3 [1]; Phase 1 current)	IC50 (hTRPV3 [1]; [6]) [nM]	hTRPV3 (nM) (Phase 2) (hTRPV3 [1]; Phase 2 current)
Cc1ccc(O[C@H]2CCN(c3ccc(-c4ccccn4)cc3CO)C2)nc1 [Compound 1-220, (S)-(2-(3-(5-methylpyridin-2-yloxy)pyrrolidin-1-yl)-5-(pyridin-2-yl)phenyl)methanol]	> 1000	> 3200	no fit (5 min) no fit (30 min)	no fit (5 min) no fit (30 min)	–	–	–	–	–	–
Nc1cc(-c2ccccc2)ccc1N1CC[C@H](Oc2ccc3cc(Cl)ccc3n2)C1 [Compound 1-71, (S)-4-(3-(6-chloroquinolin-2-yloxy)pyrrolidin-1-yl)biphenyl-3-amine]	–	> 3200	no fit (5 min)	–	> 3200	> 1000	> 1000	–	–	–
NC(=O)c1c(-c2ccccc2)cccc1N1CC[C@H](Oc2ccc(C(F)(F)F)cn2)C1 [Compound 1-72, (S)-3-(3-(5-(trifluoromethyl)pyridin-2-yloxy)pyrrolidin-1-yl)biphenyl-2-carboxamide]	–	–	no fit (5 min)	–	> 3200	–	–	Agonist	> 1000	–
OCc1ccc(-c2ccccc2Cl)cc1N1CC[C@H](Oc2ccc(C(F)(F)F)cn2)C1 [Compound 1-225, (S)-(2′-chloro-3-(3-(5-(trifluoromethyl)pyridin-2-yloxy)pyrrolidin-1-yl)biphenyl-4-yl)methanol]	100 to 1000	215	no fit (5 min) no fit (30 min)	no fit (5 min) no fit (30 min)	–	–	–	–	–	–
Nc1ccccc1N1CC[C@H](Oc2ccc3cc(Cl)ccc3n2)C1 [Compound 1-69, (S)-2-(3-(6-chloroquinolin-2-yloxy)pyrrolidin-1-yl)aniline]	–	–	no fit (5 in)	–	–	–	–	–	–	Agonist (Phase 2)
OCc1ccc(-c2ccccc2Cl)cc1N1CC[C@H](Oc2ncccc2Cl)C1 [Compound 1-234, (S)-(2′-chloro-3-(3-(3-chloropyridin-2-yloxy)pyrrolidin-1-yl)biphenyl-4-yl)methanol]	100 to 1000	737	no fit (5 min) no fit (30 min)	no fit (5 min) no fit (30 min)	–	–	–	–	–	–
CCc1ccccc1-c1ccc(CO)c(N2CC[C@H](Oc3ccc(C(F)(F)F)cn3)C2)c1 [Compound 1-227, (S)-(2′-ethyl-3-(3-(5-(trifluoromethyl)pyridin-2-yloxy)pyrrolidin-1-yl)biphenyl-4-yl)methanol]	100 to 1000	200	no fit (5 min) no fit (30 min)	no fit (5 min) no fit (30 min)	–	–	–	–	–	–
OCc1cc(-c2ccccc2C(F)(F)F)ccc1N1CC[C@H](Oc2ccc(C(F)(F)F)cn2)C1 [Compound 1-152, (S)-(2′-(trifluoromethyl)-4-(3-(5-(trifluoromethyl)pyridin-2-yloxy)pyrrolidin-1-yl)biphenyl-3-yl)methanol]	10 to 100	20.4	no fit (5 min)	–	–	–	–	–	–	–
Cc1cccnc1O[C@H]1CCN(c2ccc(-c3ccccc3Cl)cc2CCO)C1 [Compound 1-194, (S)-2-(2′-chloro-4-(3-(3-methylpyridin-2-yloxy)pyrrolidin-1-yl)biphenyl-3-yl)ethanol]	100 to 1000	327	no fit (5 min)	–	–	–	–	–	–	–
OCc1ncc(-c2ccccc2)cc1N1CC[C@H](Oc2ccc(C(F)(F)F)cn2)C1 [Compound 1-188, (S)-(5-phenyl-3-(3-(5-(trifluoromethyl)pyridin-2-yloxy)pyrrolidin-1-yl)pyridin-2-yl)methanol]	> 1000	> 3200	no fit (5 min) no fit (30 min)	no fit (5 min) no fit (30 min)	–	–	–	–	–	–
CCOC(=O)COc1cc(-c2ccccc2)ccc1N1CC[C@H](Oc2ccc(C(F)(F)F)cn2)C1 [Compound 1-134, (S)-ethyl 2-(4-(3-(5-(trifluoromethyl)pyridin-2-yloxy)pyrrolidin-1-yl)biphenyl-3-yloxy)acetate]	> 1000	~4820	no fit (5 min)	–	> 3200	–	–	–	> 1000	–
Cc1ccccc1-c1ccc(CO)c(N2CC[C@H](Oc3ncccc3Cl)C2)c1 [Compound 1-240, (S)-(3-(3-(3-chloropyridin-2-yloxy)pyrrolidin-1-yl)-2′-methylbiphenyl-4-yl)methanol]	100 to 1000	934	no fit (5 min) no fit (30 min)	no fit (5 min) no fit (30 min)	–	–	–	–	–	–
